Each structure is given as a SMILES string.

The test relates to MM.1S cells. The experiment in a line: CellTiter-Glo cell viability assay. It is filed as cell-based, human. Particulars: for EC50: Homo sapiens, MM1.S, 72 h, n.e.: no effect (≤25 % effect up to 50 μM), read-out: EC50 MM.1S; for antiproliferative activity reduced compared to vorinostat by a factor: MM.1S cells. The procedure:
For this purpose, the dilution series were prepared in 200-fold concentration in DMSO and further diluted to 10-fold concentration in medium. The final DMSO concentration was 0.5%. The toxicity of compounds was determined after 72 h using the CellTiter-Glo 2.0 Cell Viability Assay (Promega, Madison, WI, USA, #G9242) according to the manufacturer´s protocol. Subsequently, the luminescence was measured using a Tecan Spark (Tecan Group AG, Maennedorf, Swiss) and the half maximal effective concentration (EC50) was determined by plotting dose response curves and nonlinear regression with GraphPad Prism (GraphPad Software, San Diego, CA, USA). […] Cellular HDAC Inhibition Assay […] with minor changes. […] The DMSO-stock solutions were used to perform a serial dilution in DMSO. […] 10 µL of the substrate solution was added and incubated for 3 h under cell culture conditions. […] S8

For the molecule `O=CN(CCCCCCCCCCCC(=O)Nc1ccc(C(=O)NCCCCCCC(=O)NO)cc1)C(C(=O)NCc1ccccc1)c1ccc(Cl)c(Cl)c1` (centres unmarked) [Compound 1j-nc], the EC50 was 8600 ± 1500 nM.

Consider `O=C(CCCCCCNC(=O)c1ccc(NC(=O)CCCCCCCCCCCN(C(=O)CCl)C(C(=O)NCc2ccccc2)c2ccc(Cl)c(Cl)c2)cc1)NO` (centres unmarked) [Compound 1j], for which the EC50 is 2800 ± 100 nM and the “antiproliferative activity reduced compared to vorinostat by a factor” value is given as 3 – 6.

Take `O=C(CCCCCCNC(=O)c1ccc(N(C(=O)CCl)C(C(=O)NCc2ccccc2)c2ccc(Cl)c(Cl)c2)cc1)NO` (centres unmarked) [Compound 2]: the EC50 stood at 1500 ± 100 nM and the “antiproliferative activity reduced compared to vorinostat by a factor” value is recorded as 3 – 6.

By EC50 is commonly meant the concentration giving half of the maximal effect.

The values are drawn from PMC12091851, “Replacing a Cereblon Ligand by a DDB1 and CUL4 Associated Factor 11 (DCAF11) Recruiter Converts a Selective Histone Deacetylase 6 PROTAC into a Pan‐Degrader” (Chemmedchem, 2025).
